Measurements as given in ChEMBL document CHEMBL1255229, “Novel antimicrobial peptides that exhibit activity against select agents and other drug resistant bacteria” (2010).
In brackets after ≈: the same amount, converted by molar mass. Starred links: 1 amine or outer side, 2 acyl side, 3 side chain; linkers in the order of their positions; H or OH if unused. Non-standard residues stand in square brackets, D forms with d. Residues, ends and D or L forms follow the SMILES beside them. ξ: configuration not given here. Pro(3ξ,4ξ-(CH2)4) = O=C(O)[C@H]1NCC2CCCCC21; X1 = O=C([C@@H]1CN([*:1])C2CCCCC21)[*:2]; Phe(4-F) = N[C@@H](Cc1ccc(F)cc1)C(=O)O; Tic = O=C(O)[C@@H]1Cc2ccccc2CN1; Dap = NC[C@H](N)C(=O)O; GABA = NCCCC(=O)O; βAla = NCCC(=O)O

How the values were obtained:
Format in all cases: functional
[1] = tested on: Brucella melitensis; experiment: Antimicrobial activity against Brucella melitensis 16 M after 24 hrs
[2] = tested on: Brucella abortus; experiment: Antimicrobial activity against Brucella abortus 2308 after 24 hrs; details: Brucella abortus, 2308, 24 h
[3] = tested on: Brucella suis; experiment: Antimicrobial activity against Brucella suis ATCC 23445 after 24 hrs; details: ATCC 23445, 24 h
[4] = tested on: Bacillus anthracis; experiment: Antimicrobial activity against Bacillus anthracis Ames after 24 hrs
[5] = tested on: Acinetobacter baumannii; experiment: Antimicrobial activity against Acinetobacter baumannii WRAIR after 24 hrs
[6] = tested on: Acinetobacter baumannii; experiment: Antimicrobial activity against Acinetobacter baumannii ATCC 19606 after 24 hrs; details: ATCC 19606 = CIP 70.34 = JCM 6841, 24 h
[7] = tested on: Staphylococcus aureus; experiment: Antimicrobial activity against methicillin-resistant Staphylococcus aureus ATCC 33591 after 24 hrs; details: ATCC 33591, 24 h
[8] = tested on: Francisella tularensis; experiment: Antimicrobial activity against Francisella tularensis SCHU-S4 after 24 hrs; details: SCHU-S4, 24 h
[9] = tested on: Yersinia pestis; experiment: Antimicrobial activity against Yersinia pestis CO92 after 24 hrs; details: CO92, 24 h
[10] = tested on: Burkholderia pseudomallei; experiment: Antimicrobial activity against Burkholderia pseudomallei BURK003(1026b) after 24 hrs
[11] = tested on: Burkholderia mallei; experiment: Antimicrobial activity against Burkholderia mallei ATCC 23444 after 24 hrs; details: ATCC 23444, 24 h

CC(=O)NCCCC(=O)N[C@@H](Cc1ccccc1)C(=O)N1Cc2ccccc2C[C@H]1C(=O)N1C[C@@H](C(=O)NCCCC(=O)N[C@@H](CCCCN)C(=O)N2Cc3ccccc3C[C@H]2C(=O)N2C[C@@H](C(=O)NCCCC(=O)N[C@@H](Cc3ccccc3)C(=O)N3Cc4ccccc4C[C@H]3C(=O)N3C[C@@H](C(=O)NCCCC(=O)N[C@@H](CCCCN)C(=O)N4Cc5ccccc5C[C@H]4C(=O)N[C@@H](CCCCN)C(=O)N[C@@H](CCCCN)C(=O)N[C@@H](CCCCN)C(=O)N[C@@H](CCCCN)C(N)=O)C4CCCCC43)C3CCCCC32)C2CCCCC21 (stereo not given in full) (Ac-[GABA]F[Tic][X1][GABA]K[Tic][X1][GABA]F[Tic][X1][GABA]K[Tic]KKKK-NH2)
MIC [1]: 196 µM (≈ 500 µg/mL)
MIC [2]: 196 µM (≈ 500 µg/mL)
MIC [3]: 196 µM (≈ 500 µg/mL)
MIC [4]: 12.5 µM (≈ 31.9 µg/mL)
MIC [5]: 3.1 µM (≈ 7.92 µg/mL)
MIC [6]: 3.1 µM (≈ 7.92 µg/mL)
MIC [7]: 196 µM (≈ 500 µg/mL)
MIC [8]: 196 µM (≈ 500 µg/mL)
MIC [9]: 196 µM (≈ 500 µg/mL)
MIC [10]: 196 µM (≈ 500 µg/mL)
MIC [11]: 196 µM (≈ 500 µg/mL)

CC(=O)NCCCC(=O)N[C@@H](Cc1ccccc1)C(=O)N1Cc2ccccc2C[C@H]1C(=O)N1C[C@@H](C(=O)NCCCC(=O)N[C@@H](CCCCN)C(=O)N2Cc3ccccc3C[C@H]2C(=O)N2C[C@@H](C(=O)NCCCC(=O)N[C@@H](Cc3ccccc3)C(=O)N3Cc4ccccc4C[C@H]3C(=O)N3C[C@@H](C(=O)NCCCC(=O)N[C@@H](CCCCN)C(=O)N4Cc5ccccc5C[C@H]4C(=O)N[C@@H](CCCCN)C(=O)N[C@@H](CCCCN)C(=O)N[C@@H](CCCCN)C(=O)N[C@@H](CCCCN)C(=O)N[C@@H](CCCCN)C(N)=O)C4CCCCC43)C3CCCCC32)C2CCCCC21 (stereo not given in full) (Ac-[GABA]F[Tic][X1][GABA]K[Tic][X1][GABA]F[Tic][X1][GABA]K[Tic]KKKKK-NH2)
MIC [1]: 46.6 µM (≈ 125 µg/mL)
MIC [2]: > 186 µM
MIC [3]: 93 µM (≈ 249 µg/mL)
MIC [4]: 0.71 µM (≈ 1.9 µg/mL)
MIC [5]: 2.9 µM (≈ 7.78 µg/mL)
MIC [6]: 5.8 µM (≈ 15.6 µg/mL)
MIC [7]: 46.6 µM (≈ 125 µg/mL)
MIC [8]: 186 µM (≈ 499 µg/mL)
MIC [9]: 46.6 µM (≈ 125 µg/mL)
MIC [10]: 186 µM (≈ 499 µg/mL)
MIC [11]: 186 µM (≈ 499 µg/mL)

CC(=O)NCCC(=O)N[C@@H](Cc1ccccc1)C(=O)N1Cc2ccccc2C[C@H]1C(=O)N1C[C@@H](C(=O)NCCC(=O)N[C@@H](CCCCN)C(=O)N2Cc3ccccc3C[C@H]2C(=O)N2C[C@@H](C(=O)NCCC(=O)N[C@@H](Cc3ccccc3)C(=O)N3Cc4ccccc4C[C@H]3C(=O)N3C[C@@H](C(=O)NCCC(=O)N[C@@H](CCCCN)C(=O)N[C@@H](CCCCN)C(=O)N[C@@H](CCCCN)C(=O)N[C@@H](CCCCN)C(=O)N[C@@H](CCCCN)C(N)=O)C4CCCCC43)C3CCCCC32)C2CCCCC21 (stereo not given in full) (Ac-[βAla]F[Tic][X1][βAla]K[Tic][X1][βAla]F[Tic][X1][βAla]KKKKK-NH2)
MIC [1]: 200 µM (≈ 468 µg/mL)
MIC [2]: 200 µM (≈ 468 µg/mL)
MIC [3]: 200 µM (≈ 468 µg/mL)
MIC [4]: 25 µM (≈ 58.4 µg/mL)
MIC [5]: 6.2 µM (≈ 14.5 µg/mL)
MIC [6]: 1.5 µM (≈ 3.51 µg/mL)
MIC [7]: 200 µM (≈ 468 µg/mL)
MIC [8]: 100 µM (≈ 234 µg/mL)
MIC [9]: 200 µM (≈ 468 µg/mL)
MIC [10]: 200 µM (≈ 468 µg/mL)
MIC [11]: 200 µM (≈ 468 µg/mL)

CC(=O)NCCC(=O)N[C@@H](Cc1ccc(F)cc1)C(=O)N1Cc2ccccc2C[C@H]1C(=O)N1CC2CCCCC2[C@H]1C(=O)NCCC(=O)N[C@@H](CN)C(=O)N1Cc2ccccc2C[C@H]1C(=O)N1CC2CCCCC2[C@H]1C(=O)NCCC(=O)N[C@@H](Cc1ccc(F)cc1)C(=O)N1Cc2ccccc2C[C@H]1C(=O)N1CC2CCCCC2[C@H]1C(=O)NCCC(=O)N[C@@H](CN)C(=O)N1Cc2ccccc2C[C@H]1C(=O)N[C@@H](CN)C(=O)N[C@@H](CN)C(=O)N[C@@H](CN)C(=O)N[C@@H](CN)C(N)=O (stereo not given in full) (Ac-[βAla][Phe(4-F)][Tic][Pro(3ξ,4ξ-(CH2)4)][βAla][Dap][Tic][Pro(3ξ,4ξ-(CH2)4)][βAla][Phe(4-F)][Tic][Pro(3ξ,4ξ-(CH2)4)][βAla][Dap][Tic][Dap][Dap][Dap][Dap]-NH2)
MIC [1]: 219 µM (≈ 499 µg/mL)
MIC [2]: 219 µM (≈ 499 µg/mL)
MIC [3]: 219 µM (≈ 499 µg/mL)
MIC [4]: 6.8 µM (≈ 15.5 µg/mL)
MIC [5]: 3.4 µM (≈ 7.75 µg/mL)
MIC [6]: 3.4 µM (≈ 7.75 µg/mL)
MIC [7]: 109 µM (≈ 249 µg/mL)
MIC [8]: 219 µM (≈ 499 µg/mL)
MIC [9]: 219 µM (≈ 499 µg/mL)
MIC [10]: 219 µM (≈ 499 µg/mL)
MIC [11]: 219 µM (≈ 499 µg/mL)

CC(C)C[C@H](NC(=O)[C@@H](N)CCCCN)C(=O)N1Cc2ccccc2C[C@H]1C(=O)N1C[C@@H](C(=O)NCC(=O)N[C@@H](CCCCN)C(=O)N2Cc3ccccc3C[C@H]2C(=O)N2C[C@@H](C(=O)N[C@@H](Cc3ccccc3)C(=O)N3Cc4ccccc4C[C@H]3C(=O)N3C[C@@H](C(=O)NCC(=O)N[C@@H](CCCCN)C(=O)N4Cc5ccccc5C[C@H]4C(=O)N4C[C@@H](C(=O)N[C@@H](Cc5ccccc5)C(=O)N5Cc6ccccc6C[C@H]5C(=O)N5C[C@@H](C(=O)NCC(=O)N[C@@H](CCCCN)C(=O)N6Cc7ccccc7C[C@H]6C(=O)N6C[C@@H](C(=O)N[C@@H](CCCCN)C(=O)N[C@@H](CCCCN)C(=O)N[C@@H](CCCCN)C(=O)N[C@@H](CCCCN)C(N)=O)C7CCCCC76)C6CCCCC65)C5CCCCC54)C4CCCCC43)C3CCCCC32)C2CCCCC21 (stereo not given in full) (H-KL[Tic][X1]GK[Tic][X1]F[Tic][X1]GK[Tic][X1]F[Tic][X1]GK[Tic][X1]KKKK-NH2)
MIC [1]: 144 µM (≈ 502 µg/mL)
MIC [2]: 144 µM (≈ 502 µg/mL)
MIC [3]: 144 µM (≈ 502 µg/mL)
MIC [4]: 8.97 µM (≈ 31.2 µg/mL)
MIC [5]: 144 µM (≈ 502 µg/mL)
MIC [6]: 4.6 µM (≈ 16 µg/mL)
MIC [7]: 17.9 µM (≈ 62.4 µg/mL)
MIC [8]: 144 µM (≈ 502 µg/mL)
MIC [9]: 144 µM (≈ 502 µg/mL)
MIC [10]: 144 µM (≈ 502 µg/mL)
MIC [11]: 144 µM (≈ 502 µg/mL)
